Laboratory results taken from publication PMC6934184, “Selective DNA-PKcs inhibition extends the therapeutic index of localized radiotherapy and chemotherapy” (The Journal of Clinical Investigation, 2019).

Target: T1, AMPK (A2/B2/G2) (Homo sapiens, UniProt P54646)
T1 construct: purchased Thermo Fisher Scientific (Life Technologies) SelectScreen
Assay: SelectScreen LanthaScreen
Type: binding
Settings: read-out: % displacement
How it was run: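 SelectScreen broad panel; activity (Z'LYTE, Adapta) plus binding formats. ATP: Km app for CSF1R Z'LYTE; 10 for CAMK1 Adapta. Readout = % per kinase.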

T1 sequence (P54646 whole entry): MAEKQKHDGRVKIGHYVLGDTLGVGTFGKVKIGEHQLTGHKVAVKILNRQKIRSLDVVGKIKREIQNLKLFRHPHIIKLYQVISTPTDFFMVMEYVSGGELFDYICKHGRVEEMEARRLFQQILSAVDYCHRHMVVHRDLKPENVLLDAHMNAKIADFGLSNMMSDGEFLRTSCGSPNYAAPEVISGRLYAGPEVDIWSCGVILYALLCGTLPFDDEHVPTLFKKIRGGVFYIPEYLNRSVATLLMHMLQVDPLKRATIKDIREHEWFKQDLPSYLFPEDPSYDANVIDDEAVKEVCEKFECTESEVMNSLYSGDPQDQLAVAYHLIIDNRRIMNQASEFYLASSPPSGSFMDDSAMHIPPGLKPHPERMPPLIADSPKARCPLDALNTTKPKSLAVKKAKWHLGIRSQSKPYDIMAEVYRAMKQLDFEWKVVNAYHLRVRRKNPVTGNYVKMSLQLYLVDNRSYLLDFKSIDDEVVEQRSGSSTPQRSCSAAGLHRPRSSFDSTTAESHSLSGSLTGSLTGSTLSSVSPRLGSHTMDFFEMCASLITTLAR
T1 sequence (O43741 whole entry partner): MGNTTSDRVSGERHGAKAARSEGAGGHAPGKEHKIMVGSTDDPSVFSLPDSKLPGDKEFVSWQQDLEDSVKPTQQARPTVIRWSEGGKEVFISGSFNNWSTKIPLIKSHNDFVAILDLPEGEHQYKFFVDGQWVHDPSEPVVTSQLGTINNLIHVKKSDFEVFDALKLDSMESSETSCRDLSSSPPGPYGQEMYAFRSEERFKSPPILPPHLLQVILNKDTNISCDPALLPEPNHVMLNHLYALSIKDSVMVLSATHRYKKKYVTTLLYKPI
T1 sequence (Q9UGJ0 whole entry partner): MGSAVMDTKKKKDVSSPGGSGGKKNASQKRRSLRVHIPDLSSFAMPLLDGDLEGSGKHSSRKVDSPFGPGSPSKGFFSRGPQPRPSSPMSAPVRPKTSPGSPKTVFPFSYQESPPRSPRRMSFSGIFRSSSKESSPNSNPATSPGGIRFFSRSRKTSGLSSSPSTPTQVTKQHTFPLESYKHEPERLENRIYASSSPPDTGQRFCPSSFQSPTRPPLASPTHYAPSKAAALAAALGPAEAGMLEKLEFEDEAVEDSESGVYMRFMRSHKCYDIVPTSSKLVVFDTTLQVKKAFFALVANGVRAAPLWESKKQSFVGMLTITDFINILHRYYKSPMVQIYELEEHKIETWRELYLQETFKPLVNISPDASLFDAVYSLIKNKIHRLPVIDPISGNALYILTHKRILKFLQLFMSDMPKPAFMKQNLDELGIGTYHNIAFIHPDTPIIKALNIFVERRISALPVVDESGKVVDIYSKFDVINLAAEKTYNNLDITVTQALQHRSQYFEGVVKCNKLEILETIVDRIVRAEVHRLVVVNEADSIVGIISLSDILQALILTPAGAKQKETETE

Structure (SMILES): CN(C(=O)CN1CCOCC1)c1ccc2sc3c(-c4cccc5c(=O)cc(N6CC7CCC(C6)O7)oc45)cccc3c2c1 [NU5455]
- inhibition at 1 µM: -2.6%
